According to ChEMBL document CHEMBL5380810, “Scaffold Hybrid of the Natural Product Tanshinone I with Piperidine for the Discovery of a Potent NLRP3 Inflammasome Inhibitor” (J Med Chem, 2023):
≈ marks a conversion by molar mass, not a printed value. Calls of active or inactive are those of the source. The rule behind the calls is not given here.

Tests used:
[1] = test system: Peritoneal macrophage; test: Cytotoxicity against mouse peritoneal macrophages at 4 uM incubated for 3.5 hrs by MTT assay; format: toxicity, cell-based
[2] = test system: Peritoneal macrophage; test: Antiinflammatory activity against LPS-stimulated mouse peritoneal macrophage assessed as TNF-alpha level at 2 uM treated for 3 hrs followed by ATP addition measured after 30 mins by ELISA method relative to control; format: functional; settings: time 3.5 hrs
[3] = test system: Peritoneal macrophage; test: Antiinflammatory activity against LPS-stimulated mouse peritoneal macrophage assessed as IL-6 level at 2 uM treated for 3 hrs followed by ATP addition measured after 30 mins by ELISA method; format: functional, cell-based; settings: time 3.5 hrs
[4] = test system: Peritoneal macrophage; test: Antiinflammatory activity against LPS-stimulated mouse peritoneal macrophage assessed as IL-1beta level at 2 uM treated for 3 hrs followed by ATP addition measured after 30 mins by ELISA method relative to control; format: functional; settings: time 3.5 hrs
[5] = test system: Peritoneal macrophage; test: Antiinflammatory activity against LPS-stimulated mouse peritoneal macrophage assessed as inhibition of IL-1beta secretion treated for 3 hrs followed by ATP addition measured after 30 mins by ELISA method; format: functional, cell-based
[6] = test system: Peritoneal macrophage; test: Antiinflammatory activity against LPS-stimulated mouse peritoneal macrophage assessed as TNF-alpha level at 2 uM treated for 3 hrs followed by ATP addition measured after 30 mins by ELISA method; format: functional, cell-based; settings: time 3.5 hrs
[7] = test system: Peritoneal macrophage; test: Antiinflammatory activity against LPS-stimulated mouse peritoneal macrophage assessed as IL-6 level at 2 uM treated for 3 hrs followed by ATP addition measured after 30 mins by ELISA method relative to control; format: functional; settings: time 3.5 hrs
[8] = Aqueous solubility of compound incubated for 24 hrs by HPLC analysis; format: physicochemical; settings: buffer
[9] = Metabolic stability in human liver microsomes assessed as half life at 20 uM measured upto 120 mins in presence of NADPH by LC-MS/MS analysis; format: ADME, Microsome
[10] = Metabolic stability in mouse liver microsomes assessed as half life at 20 uM measured upto 120 mins in presence of NADPH by LC-MS/MS analysis; format: ADME, Microsome
[11] = Metabolic stability in human liver microsomes assessed as intrinsic clearance at 20 uM measured upto 120 mins in presence of NADPH by LC-MS/MS analysis; format: ADME, Microsome; settings: read-out: CLH
[12] = Metabolic stability in mouse liver microsomes assessed as intrinsic clearance at 20 uM measured upto 120 mins in presence of NADPH by LC-MS/MS analysis; format: ADME, Microsome; settings: read-out: CLH

Structure (SMILES)	Activity [1]	Activity [2]	Activity [3]	Activity [4]	IC50 [5]	Activity [6]	Activity [7]	solubility [8]	half-life at 20 µM [9]	half-life at 20 µM [10]	microsomal CLint at 20 µM [11]	microsomal CLint at 20 µM [12]
Cc1cccc2c3c(ccc12)-c1oc2c(c1C(=O)C3=O)CCN([C@@H](C)C(=O)N1CCN(C)CC1)C2	Non-Toxic	33%	inactive	97%	383 nM	–	–	–	–	–	–	–
CCN1CCc2c(oc3c2C(=O)C(=O)c2c-3ccc3c(C)cccc23)C1	Non-Toxic	–	inactive	67%	–	inactive	–	–	–	–	–	–
Cc1cccc2c3c(ccc12)-c1oc2c(c1C(=O)C3=O)CCN(CCCN1CCOCC1)C2.Cl	Non-Toxic	24%	–	91%	–	–	12%	11.89 µg/mL	–	–	–	–
Cc1cccc2c3c(ccc12)-c1oc2c(c1C(=O)C3=O)CCN(CCO)C2.Cl	Non-Toxic	22%	–	99%	–	–	–	2.45 µg/mL	–	–	–	–
Cc1cccc2c3c(ccc12)-c1oc2c(c1C(=O)C3=O)CCN([C@@H](C)C(=O)N1CCOCC1)C2	Non-Toxic	52%	inactive	98%	2920 nM	–	–	–	–	–	–	–
Cc1cccc2c3c(ccc12)-c1oc2c(c1C(=O)C3=O)CCN(CCO)C2	Non-Toxic	40%	–	96%	114 nM	–	7%	0.34 µg/mL (≈ 0.941 µM)	11.6 h	3.03 h	2 µL/min/mg	7.64 µL/min/mg
Cc1cccc2c3c(ccc12)-c1oc2c(c1C(=O)C3=O)CCN(CCN1CCCC1)C2	Non-Toxic	–	inactive	73%	–	inactive	–	–	–	–	–	–
COC(=O)CC[C@@H](C(=O)OC)N1CCc2c(oc3c2C(=O)C(=O)c2c-3ccc3c(C)cccc23)C1	Non-Toxic	58%	–	65%	–	–	41%	–	–	–	–	–
COC(=O)CCCN1CCc2c(oc3c2C(=O)C(=O)c2c-3ccc3c(C)cccc23)C1	Non-Toxic	43%	–	67%	–	–	32%	–	–	–	–	–
Cc1cccc2c3c(ccc12)-c1oc2c(c1C(=O)C3=O)CCN([C@H](CO)CCCO)C2.Cl	Non-Toxic	16%	–	96%	–	–	6%	6.34 µg/mL	–	–	–	–
CNC(=O)CN1CCc2c(oc3c2C(=O)C(=O)c2c-3ccc3c(C)cccc23)C1	Non-Toxic	36%	–	92%	–	–	19%	–	–	–	–	–
Cc1cccc2c3c(ccc12)-c1oc2c(c1C(=O)C3=O)CCN(CC(=O)N1CCOCC1)C2	Non-Toxic	36%	–	96%	368 nM	–	24%	–	–	–	–	–
Cc1cccc2c3c(ccc12)-c1oc2c(c1C(=O)C3=O)CCN(C)C2	Non-Toxic	16%	–	40%	–	–	18%	–	–	–	–	–
Cc1cccc2c3c(ccc12)-c1oc2c(c1C(=O)C3=O)CCN(CCN1CCOCC1)C2	Non-Toxic	26%	inactive	99%	273 nM	–	–	–	–	–	–	–
Cc1cccc2c3c(ccc12)-c1oc2c(c1C(=O)C3=O)CCN(CCCN(C)C)C2	Non-Toxic	19%	–	95%	–	–	8%	–	–	–	–	–
Cc1cccc2c3c(ccc12)-c1oc2c(c1C(=O)C3=O)CCN([C@H](CO)CCCO)C2	Non-Toxic	41%	–	99%	65 nM	–	10%	0.45 µg/mL (≈ 1.07 µM)	3.73 h	6.08 h	6.2 µL/min/mg	3.8 µL/min/mg
Cc1cccc2c3c(ccc12)-c1oc2c(c1C(=O)C3=O)CCN(CCCN1CCCC1)C2	Non-Toxic	13%	–	94%	–	–	31%	–	–	–	–	–
Cc1cccc2c3c(ccc12)-c1oc2c(c1C(=O)C3=O)CCN(CCN1CCCCC1)C2	Non-Toxic	–	inactive	41%	–	inactive	–	–	–	–	–	–
Cc1cccc2c3c(ccc12)-c1oc2c(c1C(=O)C3=O)CCNC2	Non-Toxic	22%	–	16%	–	–	13%	–	–	–	–	–
Cc1coc2c1C(=O)C(=O)c1c-2ccc2c(C)cccc12 [TANSHINONE I]	Non-Toxic	55%	inactive	69%	–	–	–	–	0.0795 h	0.352 h	290 µL/min/mg	65.6 µL/min/mg
Cc1cccc2c3c(ccc12)-c1oc2c(c1C(=O)C3=O)CCN(CC(=O)N(C)C)C2	Non-Toxic	52%	–	71%	–	–	11%	–	–	–	–	–
